# According to patent US10577333B2, “Tetrazole derivatives as cytochrome P450 inhibitors” (C26 Bioscience AB, priority 2016, dated 2020):
# Key:
# purified CYP26B1 = biological target: T1, purified CYP26B1 (Homo sapiens, UniProt Q9NR63); assay: Enzymatic assay on purified CYP26B1 with oxidoreductase and NADPH, [3H] atRA, HPLC; format: biochemical; conditions: 5 μM, 5 nM CYP26B1, 50 nM [3H] atRA, 1 mM NADPH, 10 sec to 10 min
# T1 construct: made in house
# T1 sequence (Q9NR63 1-512): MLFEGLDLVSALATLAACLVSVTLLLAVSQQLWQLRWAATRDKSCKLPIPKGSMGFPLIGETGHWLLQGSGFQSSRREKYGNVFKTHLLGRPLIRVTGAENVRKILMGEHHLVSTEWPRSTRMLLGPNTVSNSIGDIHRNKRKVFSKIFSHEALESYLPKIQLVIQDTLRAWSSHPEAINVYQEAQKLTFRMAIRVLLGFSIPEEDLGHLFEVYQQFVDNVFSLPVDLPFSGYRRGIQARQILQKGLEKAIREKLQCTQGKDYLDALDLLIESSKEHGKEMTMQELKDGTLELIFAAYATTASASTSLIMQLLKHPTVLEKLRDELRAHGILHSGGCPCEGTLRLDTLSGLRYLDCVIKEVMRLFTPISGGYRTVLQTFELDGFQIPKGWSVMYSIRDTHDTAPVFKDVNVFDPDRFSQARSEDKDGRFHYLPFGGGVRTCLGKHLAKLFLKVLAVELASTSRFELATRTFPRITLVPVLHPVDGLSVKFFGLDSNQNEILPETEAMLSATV
# Procedure: FIG. 4 is a graph showing results from an enzymatic assay carried out on purified CYP26B1, incubated with 5 or 25 μM of the test compound in the presence of oxidoreductase and NADPH, at different time points. The control experiment was performed without initiation with NADPH. For all experiments n=3.
# To investigate the efficiency of the compound of Formula II in blocking CYP26B1, CYP26B1 was purified and subsequently incubated with 5 and 25 μM of compound of Formula II for different time points (10 s to 10 min). This experiment thus excludes any other possible metabolic route that potentially could have been present in the cellular experiments. Purified CYP26B1 was stored in buffer containing 50 mM K2HPO4, 0.5 mM EDTA and 20% of glycerol, pH 7.4 at −80° C. The assay was performed as follows: 5 nM of CYP26B1 and 10 nM oxidoreductase was preincubated. 5 or 25 μM of the compound of Formula II and 50 nM [^3H] atRA were added followed by addition of 1 mM NADPH in total volume of 100 μl of Kpi buffer and incubated for 10 sec to 10 min. The reaction was stopped by adding 100 μl absolute ethanol. The sample was subsequently extracted and analysed by HPLC. For control, experiments were performed as above but without initiation of the reaction by NADPH.
# CYP26B1 [1] = biological target: T2, CYP26B1 (Homo sapiens, UniProt Q9NR63); assay: [3H] atRA catabolism in human smooth muscle cells, HPLC analysis; format: cell-based; set-up: endogenous in cells; host or cells: human aortic smooth muscle cells (AOSMC); conditions: AOSMCs, 1 or 10 μM for 1 h, then [3H] atRA for 4 h
# T2 sequence (Q9NR63 1-512): T1 sequence (Q9NR63 1-512)
# Procedure: (§1) FIG. 3 illustrates quantification of atRA levels by HPLC in human smooth muscle cells and transfected COS-1 cells: A) Human smooth muscle cells were treated with 1 or 10 μM of the new CYP26 inhibitor for 1 h followed by a 4 h [^3H] atRA incubation. B) COS-1 transfected by 1 μg/μL of CYP26B1 and incubated with 1 or 10 μM of test compound followed by a 2 h [^3H] atRA incubation. For all experiments n=3; *P<0.05, **P<0.01 and ***P<0.001.
# AOSMCs were seeded out in density of 2×10^5 in 6 well plates incubated with two different concentrations (1 and 10 μM) of compound according to Formula II for 1 h followed by exposure to 1 μCl/ml of [^3H] atRA for 4 h. Cells were thereafter washed using BSA 1 mg/ml of PBS followed by HPLC analysis.
# [2] = tested on: atRA responsive genes CYP26B1 and RARβ; assay: QRT-PCR of atRA responsive genes CYP26B1 and RARβ mRNA in human aortic smooth muscle cells; format: cell-based; conditions: AOSMCs
# Procedure: FIG. 1 illustrates the induction of CYP26B1 and RARβ mRNA at different concentrations of test compound: A) CYP26 and B) RARβ in human smooth muscle cells treated with 0.001-10 μM of the test compound. For all experiments n=3; *P≤0.05, **P<0.01 and ***P<0.001.
# FIG. 2 are diagrams of CYP26B1 and RARβ mRNA expression in human smooth muscle cells upon treatment with atRA and/or test compound: A) CYP26B1 and B) RARβ mRNA expression in human smooth muscle cells treated with either 1 μm of atRA, test compound or combination of both for 48 h. The experiment was performed in three independent runs; *P≤0.05, **P<0.01 and ***P<0.001.
# Human aortic smooth muscle cells (AOSMCs) were treated with different concentrations of a compound of Formula II (0.001-10 μM; FIGS. 1A and B). AOSMCs were incubated with different concentration (0.001-10 μM) of compound according to Formula II, or DMSO as control, at 37 C for 24 h. Total RNA were isolated by using E.Z.N.A total RNA kit (VWR Stockholm Sweden) and cDNA synthesis was performed through high capacity reverse transcription kits (applied Biosystems, Foster City, Calif., USA) according to manufacturers instructions.
# Next, human AOSMCs were treated with either 1 μM of atRA or a compound of Formula II alone, or a combination of both for 48 h. The purification and analysis procedures were as described above. […] The results strongly indicate that the compound of Formula II increases retinoid signalling.
# CYP26B1 [3] = biological target: T2, CYP26B1; assay: [3H] atRA catabolism in CYP26B1 transfected COS-1 cells, HPLC analysis; format: cell-based; set-up: expressed in transfected cells; host or cells: COS-1; conditions: 1 or 10 μM for 1 h, then [3H] atRA for 2 h
# Procedure: as §1
# To investigate the specificity of our candidate to inhibit CYP26B1-mediated catabolism of atRA, COS-1 cells were transfected with CYP26B1 or an empty vector (in which case no CYP26B1 can be produced). COS-1 was maintained in Dulbecco's Modified Eagle's Medium (DMEM; Life Technologies, Carsbad, Calif., USA) and transfection of COS-1 was performed in 12 well plates using 1 μg/μl of CYP26B1 and 2 μl of lipofectamin 2000 in 250 μl of Opti-MEM (Opti-MEM: Modified Eagle's Minimum Essential Media; Life Technologies, Carlsbad, Calif., USA). The mixture was incubated at room temperature for 20 minutes and added to the plate for 4 h followed by addition of growth medium for 24 h. The next day, the medium was replaced by fresh DMEM and treated by 1 or 10 μM of the compound according to Formula II for 1 h followed by exposure to 1 μCl/ml of [^3H] atRA for 2 h, and subsequent HPLC analysis.
# [4] = 1 μM in combination with atRA, 48 h
# [5] = 0.001-10 μM, 24 h, normalized to Cyclophilin A, vs DMSO control
smiles,measurement,setting,value
Cn1nnnc1SCCC(=O)NCc1ccc(C(=O)O)cc1 [compound of Formula II],RA degradation by purified CYP26B1,purified CYP26B1,efficiently inhibited RA degradation
same,degradation of atRA in the cells,CYP26B1 [1],greatly reduces the degradation of atRA
same,effect of atRA on induction of CYP26B1 mRNA,[2]; [4],significantly increased the effects of atRA on the induction
same,effect of atRA on induction of RARβ mRNA,[2]; [4],significantly increased the effects of atRA on the induction
same,expression of CYP26B1 mRNA,[2]; [5],significantly induced in a dose-dependent manner
same,expression of RARβ mRNA,[2]; [5],significantly induced in a dose-dependent manner
same,levels of atRA,CYP26B1 [3],significantly increased the levels of atRA
